In brackets after ≈: the same amount, converted by molar mass. Where two headings read alike, the source gives them in different places.
Legend:
Test in all cases: MIC (YAG medium)
Type in all cases: cell-based
Aspergillus niger = conditions: for MIC: Aspergillus niger, read-out: MIC A. niger (grade)
Outline: (§1)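 MIC in mg/L, defined as >70% growth inhibition relative to drug-free control by optical density at 485 nm. Plates held 24 hrs at 35° C with Aspergillus inocula of 1-2×10^4 cfu/mL in YAG medium (1% glucose, 1% ammonium chloride, 0.5% yeast extract). Compounds tested at 50-0.05 mg/L, repeated at 0.5-0.0005 mg/L where needed.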

Aspergillus flavus = conditions: for MIC: Aspergillus flavus, read-out: MIC A. flavus (grade)
Outline: as §1

Aspergillus terreus AT49 = conditions: for MIC: Aspergillus terreus
Outline: as §1

[1] = test system: Aspergillus fumigatus AF293; conditions: for MIC: Aspergillus fumigatus
Outline: as §1

Aspergillus terreus AT4 = conditions: for MIC: Aspergillus terreus
Outline: as §1

[2] = test system: Aspergillus fumigatus AF210; conditions: for MIC: Aspergillus fumigatus
Outline: as §1

[3] = YAG medium, MIC banded into grades
[4] = YAG medium, MIC banded into grades, AT49, read-out: MIC A. terreus 49 (grade)
[5] = YAG medium, MIC banded into grades, AF293, read-out: MIC A. fumigatus (grade)
[6] = YAG medium, MIC banded into grades, AT4, read-out: MIC A. terreus (grade)
[7] = YAG medium, MIC banded into grades, AF210, read-out: MIC A. fumigatus 210 (grade)
[8] = YAG medium, MIC banded into grades, AT49
[9] = YAG medium, MIC banded into grades, AF293
[10] = YAG medium, MIC banded into grades, AT4
[11] = YAG medium, MIC banded into grades, AF210

Compound | MIC (Aspergillus niger; [3]) [µg/mL] | MIC (Aspergillus flavus; [3]) [µg/mL] | MIC (Aspergillus terreus AT49; [4]) [µg/mL] | MIC [1, 5] [µg/mL] | MIC (Aspergillus terreus AT4; [6]) [µg/mL] | MIC [2, 7] [µg/mL] | other results
O=C(Nc1ccc(N2CCC(N3CCOCC3)CC2)cc1)C(=O)c1c(-c2ccccc2Cl)cc2ccccn12 [Example 26, 2-[2-(2-Chloro-phenyl)-indolizin-3-yl]-N-[4-(4-morpholin-4-yl-piperidin-1-yl)-phenyl]-2-oxo-acetamide] | 1 to 10 (≈ 1.84 to 18.4 µM) | < 1 | < 1 | 1 to 10 (≈ 1.84 to 18.4 µM) | 1 to 10 (≈ 1.84 to 18.4 µM) | < 1 | –
CN1CCN(c2ccc(NC(=O)C(=O)c3c(-c4ccccc4)cc4ccccn34)cc2-c2ncco2)CC1 [Example 19, N-[4-(4-methyl-piperazin-1-yl)-3-oxazol-2-yl-phenyl]-2-oxo-2-(2-phenyl-indolizin-3-yl)-acetamide] | > 10 | > 10 | 1 to 10 (≈ 1.98 to 19.8 µM) | > 10 | 1 to 10 (≈ 1.98 to 19.8 µM) | > 10 | –
O=C(Nc1ccccc1F)C(=O)c1c(-c2ccccc2)cc2ccc3ccccc3n12 [Example 4, N-(2-fluoro-phenyl)-2-oxo-2-(2-phenyl-pyrrolo[1,2-a]quinolin-1-yl)-acetamide] | > 10 | > 10 | > 10 | > 10 | > 10 | > 10 | –
Cc1cc(C)nc(N(C)CCN(C)c2ccc(NC(=O)C(=O)c3c(-c4ccccc4)cc4ccccn34)cc2)c1 [Example 55, N-[4-({2-[(4,6-Dimethyl-pyridin-2-yl)-methyl-amino]-ethyl}-methyl-amino)-phenyl]-2-oxo-2-(2-phenyl-indolizin-3-yl)-acetamide] | < 1 | < 1 | < 1 | < 1 | < 1 | < 1 | –
CCc1cccc(N2CCN(c3ccc(NC(=O)C(=O)c4c(-c5ccccc5)cc5ccccn45)cc3)CC2)n1 [Example 73, N-{4-[4-(6-ethyl-pyridin-2-yl)-piperazin-1-yl]-phenyl}-2-oxo-2-(2-phenyl-indolizin-3-yl)-acetamide] | < 1 | < 1 | < 1 | < 1 | < 1 | < 1 | –
O=C(Nc1cnccc1N1CCN(CCc2ccco2)CC1)C(=O)c1c(-c2ccccc2)cc2ccccn12 [Example 38, N-{4-[4-(2-Furan-2-yl-ethyl)-piperazin-1-yl]-pyridin-3-yl}-2-oxo-2-(2-phenyl-indolizin-3-yl)-acetamide] | < 1 | < 1 | < 1 | < 1 | < 1 | < 1 | –
Cc1cc(C)nc(CNc2ccc(NC(=O)C(=O)c3c(-c4ccccc4)cc4ccccn34)cc2)c1 [Example 91, N-{4-[(4,6-Dimethyl-pyridin-2-ylmethyl)-amino]-phenyl}-2-oxo-2-(2-phenyl-indolizin-3-yl)-acetamide] | < 1 | < 1 | < 1 | < 1 | < 1 | < 1 | –
Cc1cc(N2CCN(c3ccc(NC(=O)C(=O)c4c(-c5ccccc5)cc5ccccn45)cc3)CC2)cc(C)n1 [Example 52, N-{4-[4-(2,6-Dimethyl-pyridin-4-yl)-piperazin-1-yl]-phenyl}-2-oxo-2-(2-phenyl-indolizin-3-yl)-acetamide] | > 10 | > 10 | > 10 | > 10 | > 10 | > 10 | –
Cc1cc(C)nc(N2CCN(c3ccc(NC(=O)C(=O)c4c(-c5ccccc5)cc5ccccn45)c(C)c3)CC2)c1 [Example 80, N-{4-[4-(4,6-Dimethyl-pyridin-2-yl)-piperazin-1-yl]-2-methyl-phenyl}-2-oxo-2-(2-phenyl-indolizin-3-yl)-acetamide] | < 1 | < 1 | < 1 | < 1 | < 1 | < 1 | –
Cc1cc(C)nc(N2CCN(c3ccc(NC(=O)C(=O)c4c(C5CCCCC5)cc5ccccn45)cc3)CC2)c1 [Example 60, 2-(2-Cyclohexyl-indolizin-3-yl)-N-{4-[4-(4,6-dimethyl-pyridin-2-yl)-piperazin-1-yl]-phenyl}-2-oxo-acetamide] | < 1 | < 1 | < 1 | < 1 | < 1 | < 1 | –
CC(C)c1nc(C(C)(C)c2ccc(NC(=O)C(=O)c3c(-c4ccccc4)cc4ccccn34)cc2)cn1C [Example 16, N-{4-[1-(2-isopropyl-1-methyl-1H-imidazol-4-yl)-1-methyl-ethyl]-phenyl}-2-oxo-2-(2-phenyl-indolizin-3-yl)-acetamide] | 1 to 10 (≈ 1.98 to 19.8 µM) | < 1 | < 1 | 1 to 10 (≈ 1.98 to 19.8 µM) | < 1 | 1 to 10 (≈ 1.98 to 19.8 µM) | –
Cc1cc(C)nc(N2CCN(c3ccc(NC(=O)C(=O)c4c(C(C)C)cc5ccccn45)cc3)CC2)c1 [Example 61, N-{4-[4-(4,6-Dimethyl-pyridin-2-yl)-piperazin-1-yl]-phenyl}-2-(2-isopropyl-indolizin-3-yl)-2-oxo-acetamide] | < 1 | < 1 | < 1 | < 1 | < 1 | < 1 | –
CC(C)c1nccn1CCOC(=O)C(C)(C)c1cccc(NC(=O)C(=O)c2c(-c3ccccc3)cc3ccccn23)c1 [Example 22, 2-Methyl-2-{3-[2-oxo-2-(2-phenyl-indolizin-3-yl)-acetylamino]-phenyl}-propionic acid 2-(2-isopropyl-imidazol-1-yl)-ethyl ester] | > 10 | 1 to 10 (≈ 1.78 to 17.8 µM) | 1 to 10 (≈ 1.78 to 17.8 µM) | > 10 | 1 to 10 (≈ 1.78 to 17.8 µM) | > 10 | –
CCC(CC)N1CCN(c2ccc(NC(=O)C(=O)c3c(-c4ccccc4Cl)cc4ccccn34)cn2)CC1 [Example 10, 2-[2-(2-chloro-phenyl)-indolizin-3-yl]-N-{6-[4-(1-ethyl-propyl)-piperazin-1-yl]-pyridin-3-yl}-2-oxo-acetamide] | < 1 | < 1 | < 1 | < 1 | < 1 | < 1 | –
O=C(Nc1ccc(N2CCN(c3cccc(N(CCO)CCO)n3)CC2)cc1)C(=O)c1c(-c2ccccc2)cc2ccccn12 [Example 86, N-[4-(4-{6-[Bis-(2-hydroxy-ethyl)-amino]-pyridin-2-yl}-piperazin-1-yl)-phenyl]-2-oxo-2-[2-phenyl-indolizin-3-yl)-acetamide] | 1 to 10 (≈ 1.65 to 16.5 µM) | < 1 | 1 to 10 (≈ 1.65 to 16.5 µM) | < 1 | 1 to 10 (≈ 1.65 to 16.5 µM) | 1 to 10 (≈ 1.65 to 16.5 µM) | –
O=C(Nc1ccc(N2CCN(c3cccnc3)CC2)cc1)C(=O)c1c(-c2ccccc2)cc2ccccn12 [Example 59, 2-Oxo-2-(2-phenyl-indolizin-3-yl)-N-[4-(4-pyridin-3-yl-piperazin-1-yl)-phenyl]-acetamide] | < 1 | < 1 | < 1 | < 1 | < 1 | < 1 | –
2-Oxo-2-(2-phenyl-indolizin-3-yl)-N-{4-[4-(2-pyridin-yl-ethyl)-perazin-1-yl]-phenyl}-acetamide [Example 36] | – | – | – | – | – | – | MIC A. niger (grade) (Aspergillus niger; [3]): 3 (A grade of 3 represents an MIC of less than 1 mg/L); MIC A. flavus (grade) (Aspergillus flavus; [3]): 3 (A grade of 3 represents an MIC of less than 1 mg/L); MIC A. terreus 49 (grade) (Aspergillus terreus AT49; [8]): 3 (A grade of 3 represents an MIC of less than 1 mg/L); MIC A. fumigatus (grade) [1, 9]: 3 (A grade of 3 represents an MIC of less than 1 mg/L); MIC A. terreus (grade) (Aspergillus terreus AT4; [10]): 3 (A grade of 3 represents an MIC of less than 1 mg/L); MIC A. fumigatus 210 (grade) [2, 11]: 3 (A grade of 3 represents an MIC of less than 1 mg/L)
CCN(CC)C(=O)Oc1cc(-c2ccc(NC(=O)C(=O)c3c(-c4ccccc4)cc4ccccn34)cc2)on1 [Example 27, Diethyl-carbamic acid-5-{4-[2-oxo-2-(2-phenyl-indolizin-3-yl)-acetylamino]-phenyl}-isoxazol-3-yl ester] | – | – | – | – | – | – | MIC (Aspergillus niger): < 1 µg/mL; MIC (Aspergillus flavus): < 1 µg/mL; MIC (Aspergillus terreus AT49; AT49, read-out: MIC A. terreus 49 (grade)): < 1 µg/mL; MIC ([1]; AF293, read-out: MIC A. fumigatus (grade)): < 1 µg/mL; MIC (Aspergillus terreus AT4; AT4, read-out: MIC A. terreus (grade)): < 1 µg/mL; MIC ([2]; AF210, read-out: MIC A. fumigatus 210 (grade)): < 1 µg/mL
Cc1cc(NC(=O)C(=O)c2c(-c3ccccc3)cc3ccccn23)ccc1OCCCn1ccnc1C(C)C [Example 12, N-{4-[3-(2-Isopropyl-imidazol-1-yl)-propoxy]-3-methyl-phenyl}-2-oxo-2-(2-phenyl-indolizin-3-yl)-acetamide] | > 10 | < 1 | 1 to 10 (≈ 1.92 to 19.2 µM) | 1 to 10 (≈ 1.92 to 19.2 µM) | 1 to 10 (≈ 1.92 to 19.2 µM) | 1 to 10 (≈ 1.92 to 19.2 µM) | –
CCOCCN(C1=NC(C)(C)CO1)c1ccc(NC(=O)C(=O)c2c(-c3ccccc3)cc3ccccn23)cc1 [Example 28] | – | – | – | – | – | – | MIC A. niger (grade) (Aspergillus niger; [3]): 3 (A grade of 3 represents an MIC of less than 1 mg/L); MIC A. flavus (grade) (Aspergillus flavus; [3]): 2 (A grade of 2 represents an MIC of from 1 to 10); MIC A. terreus 49 (grade) (Aspergillus terreus AT49; [8]): 2 (A grade of 2 represents an MIC of from 1 to 10); MIC A. fumigatus (grade) [1, 9]: 2 (A grade of 2 represents an MIC of from 1 to 10); MIC A. terreus (grade) (Aspergillus terreus AT4; [10]): 2 (A grade of 2 represents an MIC of from 1 to 10); MIC A. fumigatus 210 (grade) [2, 11]: 2 (A grade of 2 represents an MIC of from 1 to 10)

From patent publication US20110183969A1, “ANTIFUNGAL COMBINATION THERAPY” (priority 2008, published 2011)
